Laboratory results: patent publication US9630922B2, “3-spiro-7-hydroxamic acid tetralins as HDAC inhibitors” (Forma Therapeutics, Inc., priority 2015, dated 2017)

Molecular target: T1, HDAC6 (Homo sapiens, UniProt Q9UBN7)
T1 construct: Full length human recombinant HDAC6 protein was expressed in baculoviral system; made in house; host or cells: baculoviral system
T1 sequence (Q9UBN7 1-1215): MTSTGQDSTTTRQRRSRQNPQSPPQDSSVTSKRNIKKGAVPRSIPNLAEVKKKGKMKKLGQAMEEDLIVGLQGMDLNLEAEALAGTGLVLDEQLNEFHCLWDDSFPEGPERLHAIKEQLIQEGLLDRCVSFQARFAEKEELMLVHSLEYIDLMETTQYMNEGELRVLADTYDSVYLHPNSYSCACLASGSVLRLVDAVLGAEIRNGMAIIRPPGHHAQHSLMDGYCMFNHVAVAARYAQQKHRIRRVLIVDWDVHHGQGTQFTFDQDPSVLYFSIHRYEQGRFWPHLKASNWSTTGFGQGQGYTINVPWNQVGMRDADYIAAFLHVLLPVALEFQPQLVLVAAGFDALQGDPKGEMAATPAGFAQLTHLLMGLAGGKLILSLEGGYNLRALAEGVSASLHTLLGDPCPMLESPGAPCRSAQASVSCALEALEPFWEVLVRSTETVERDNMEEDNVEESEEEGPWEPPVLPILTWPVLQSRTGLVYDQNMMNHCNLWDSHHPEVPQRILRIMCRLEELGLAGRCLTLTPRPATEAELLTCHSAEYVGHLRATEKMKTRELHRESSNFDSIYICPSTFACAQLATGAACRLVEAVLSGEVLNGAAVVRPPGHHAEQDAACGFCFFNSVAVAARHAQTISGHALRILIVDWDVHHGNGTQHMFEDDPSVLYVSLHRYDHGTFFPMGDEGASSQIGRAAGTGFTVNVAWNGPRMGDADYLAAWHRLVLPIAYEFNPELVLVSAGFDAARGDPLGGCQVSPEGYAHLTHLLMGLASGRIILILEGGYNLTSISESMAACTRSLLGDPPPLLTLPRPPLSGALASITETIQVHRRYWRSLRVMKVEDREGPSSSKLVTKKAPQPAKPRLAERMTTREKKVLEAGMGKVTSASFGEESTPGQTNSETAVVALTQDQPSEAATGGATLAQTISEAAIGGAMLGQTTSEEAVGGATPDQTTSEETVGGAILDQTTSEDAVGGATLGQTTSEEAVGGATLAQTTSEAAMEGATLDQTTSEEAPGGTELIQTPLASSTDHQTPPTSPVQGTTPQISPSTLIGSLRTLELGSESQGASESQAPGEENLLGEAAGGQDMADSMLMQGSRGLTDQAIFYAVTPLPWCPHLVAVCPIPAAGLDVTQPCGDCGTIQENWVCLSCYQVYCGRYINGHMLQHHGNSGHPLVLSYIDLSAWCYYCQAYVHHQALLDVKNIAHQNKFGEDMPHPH
Assay: In vitro Histone Deacetylase Assay (enzymatic HDAC6 electrophoretic mobility shift assay)
Assay type: biochemical
Details: full length human recombinant HDAC6, 1 nM enzyme, 2 μM peptide substrate RHKK(Ac)-NH2, 25° C.; read-out: HDAC6 activity range
Summary of the method: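 Deacetylation was read by microfluidic mobility shift as product/(substrate+product) peak ratio and normalised to 0% and 100% inhibition controls. Reactions used 1 nM baculovirus-expressed full-length human HDAC6 and 2 μM labelled RHKK(Ac)-NH2 in pH 7.5 HEPES buffer with 1% DMSO at 25 °C. IC50 was from 4-parameter fits of 12 concentrations.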

Structure (SMILES)	IC50
O=C(NO)c1ccc2c(c1)CC[C@]1(CCN(c3cccc(F)c3)C1=O)C2 [Compound I-113, (R)-1′-(3-fluorophenyl)-N-hydroxy-2′-oxo-3,4-dihydro-1H-spiro[naphthalene-2,3′-pyrrolidine]-6-carboxamide]	≤ 100 nM
O=C(NO)c1ccc2c(c1)CC[C@]1(CCN(Cc3c(Cl)cccc3Cl)C1=O)C2 [Compound I-49, (R)-1′-(2,6-dichlorobenzyl)-N-hydroxy-2′-oxo-3,4-dihydro-1H-spiro[naphthalene-2,3′-pyrrolidine]-6-carboxamide]	≤ 100 nM
O=C(NO)c1ccc2c(c1)CC[C@]1(CCN(c3ccncc3Cl)C1=O)C2 [Compound I-140, (R)-1′-(3-chloropyridin-4-yl)-N-hydroxy-2′-oxo-3,4-dihydro-1H-spiro[naphthalene-2,3′-pyrrolidine]-6-carboxamide]	≤ 100 nM
O=C(NO)c1ccc2c(c1)CC[C@@]1(CCN(c3ccccc3)C1=O)C2 [Compound I-29, (S)-N-hydroxy-2′-oxo-1′-phenyl-3,4-dihydro-1H-spiro[naphthalene-2,3′-pyrrolidine]-6-carboxamide]	≤ 100 nM
O=C(NO)c1ccc2c(c1)CC[C@]1(CCN(Cc3ccccc3OC(F)F)C1=O)C2 [Compound I-59, (R)-1′-(2-(difluoromethoxy)benzyl)-N-hydroxy-2′-oxo-3,4-dihydro-1H-spiro[naphthalene-2,3′-pyrrolidine]-6-carboxamide]	≤ 100 nM
COc1cccc(N2CC[C@]3(CCc4cc(C(=O)NO)ccc4C3)C2=O)c1F [Compound I-125, (2R)-1′-(2-fluoro-3-methoxyphenyl)-N-hydroxy-2′-oxo-3,4-dihydro-1H-spiro[naphthalene-2,3′-pyrrolidine]-6-carboxamide]	≤ 100 nM
COCCn1c(CN2CC[C@]3(CCc4cc(C(=O)NO)ccc4C3)C2=O)nc2ccccc21 [Compound I-22, (R)-N-hydroxy-1′-((1-(2-methoxyethyl)-1H-benzo[d]imidazol-2-yl)methyl)-2′-oxo-3,4-dihydro-1H-spiro[naphthalene-2,3′-pyrrolidine]-6-carboxamide]	≤ 100 nM
O=C(NO)c1ccc2c(c1)CCC1(CCCNC1=O)C2 (stereo not shown) [Compound I-177, N-hydroxy-2′-oxo-3,4-dihydro-1H-spiro[naphthalene-2,3′-piperidine]-6-carboxamide]	≤ 100 nM
N#Cc1ccccc1N1CC[C@@]2(CCc3cc(C(=O)NO)ccc3C2)C1=O [Compound I-174, (S)-1′-(2-cyanophenyl)-N-hydroxy-2′-oxo-3,4-dihydro-1H-spiro[naphthalene-2,3′-pyrrolidine]-6-carboxamide]	≤ 100 nM
O=C(NO)c1ccc2c(c1)CC[C@]1(CCN(CC(F)(F)F)C1=O)C2 [Compound I-165, (R)-N-hydroxy-2′-oxo-1′-(2,2,2-trifluoroethyl)-3,4-dihydro-1H-spiro[naphthalene-2,3′-pyrrolidine]-6-carboxamide]	≤ 100 nM

Further lines, results first:

IC50	Structure (SMILES)
≤ 100 nM	O=C(NO)c1ccc2c(c1)CC[C@]1(CCCN(C3CC3)C1=O)C2 [Compound I-183, (S)-1′-cyclopropyl-N-hydroxy-2′-oxo-3,4-dihydro-1H-spiro[naphthalene-2,3′-piperidine]-6-carboxamide]
≤ 100 nM	CCN1CC2(CCc3cc(C(=O)NO)ccc3C2)CC1=O (single isomer, unassigned) [Compound I-211]
≤ 100 nM	O=C(NO)c1ccc2c(c1)CCC1(CC(=O)N(C3CC3)C1)C2 (single isomer, unassigned) [Compound I-209]
≤ 100 nM	CCN1CCCC2(CCc3cc(C(=O)NO)ccc3C2)C1=O (single isomer, unassigned) [Compound I-194]
≤ 100 nM	O=C(NO)c1ccc2c(c1)CC[C@@]1(CCCN(C3CC3)C1=O)C2 (single isomer, unassigned) [Compound I-193]
≤ 100 nM	O=C(NO)c1ccc2c(c1)CCC1(CC(=O)N(Cc3ccccc3)C1)C2 (single isomer, unassigned) [Compound I-216]
